Assays:
[1] = target: T1, Amine oxidase [flavin-containing] A (Homo sapiens, UniProt P21397)
T1 sequence (P21397 whole entry): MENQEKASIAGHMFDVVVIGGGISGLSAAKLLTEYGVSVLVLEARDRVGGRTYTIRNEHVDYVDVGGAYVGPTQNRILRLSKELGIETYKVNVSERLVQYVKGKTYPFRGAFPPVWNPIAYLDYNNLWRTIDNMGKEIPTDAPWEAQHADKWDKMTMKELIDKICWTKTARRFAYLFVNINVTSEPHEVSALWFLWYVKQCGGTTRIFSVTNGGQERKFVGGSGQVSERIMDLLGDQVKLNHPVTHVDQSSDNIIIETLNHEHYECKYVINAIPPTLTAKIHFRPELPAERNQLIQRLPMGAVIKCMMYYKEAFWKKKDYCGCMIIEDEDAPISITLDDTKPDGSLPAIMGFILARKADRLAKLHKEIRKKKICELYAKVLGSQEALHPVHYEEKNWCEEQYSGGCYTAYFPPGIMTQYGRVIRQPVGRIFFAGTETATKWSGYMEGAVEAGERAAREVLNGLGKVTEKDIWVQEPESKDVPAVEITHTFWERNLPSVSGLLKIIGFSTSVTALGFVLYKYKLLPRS

[2] = Permeability of the compound in PBS/EtOH at 100 ug/ml incubated for 16 hrs by PAMPA; assay type: ADME; settings: read-out: permeability
[3] = target: T2, Amine oxidase [flavin-containing] B (Homo sapiens, UniProt P27338)
T2 sequence (P27338 whole entry): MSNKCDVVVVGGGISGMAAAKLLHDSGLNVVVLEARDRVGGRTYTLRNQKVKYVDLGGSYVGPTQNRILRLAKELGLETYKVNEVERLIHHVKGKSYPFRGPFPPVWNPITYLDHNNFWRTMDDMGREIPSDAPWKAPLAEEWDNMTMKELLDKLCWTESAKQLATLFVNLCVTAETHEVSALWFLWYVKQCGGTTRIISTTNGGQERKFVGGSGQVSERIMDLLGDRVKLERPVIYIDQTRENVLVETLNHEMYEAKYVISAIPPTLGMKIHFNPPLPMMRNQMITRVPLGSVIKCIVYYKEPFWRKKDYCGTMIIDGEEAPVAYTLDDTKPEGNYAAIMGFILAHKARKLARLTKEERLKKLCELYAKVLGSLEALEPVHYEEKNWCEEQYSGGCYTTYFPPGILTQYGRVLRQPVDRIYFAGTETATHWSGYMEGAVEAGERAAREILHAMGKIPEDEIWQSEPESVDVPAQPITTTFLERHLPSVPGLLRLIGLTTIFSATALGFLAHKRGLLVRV

[4] = target: T2, Amine oxidase [flavin-containing] B; assay: Inhibition of MAOB (unknown origin) assessed as residual activity at 10 uM using benzylamine as substrate preincubated for 30 mins followed by substrate addition relative to control; settings: read-out: Activity
[5] = target: T1, Amine oxidase [flavin-containing] A; assay: Inhibition of MAOA (unknown origin) assessed as residual activity at 10 uM using kynuramine as substrate preincubated for 30 mins followed by substrate addition relative to control; settings: read-out: Activity
Acetylcholinesterase = Acetylcholinesterase (Electrophorus electricus, UniProt O42275)
Homo sapiens = species on record: Homo sapiens; assay: Selectivity index, ratio of IC50 for MAOA (unknown origin) to IC50 for MAOB (unknown origin)
[6] = target: T2, Amine oxidase [flavin-containing] B; assay: Reversible inhibition of MAOB (unknown origin) assessed as residual enzyme activity at 0.08 uM using benzylamine as substrate pre-incubated for 30 mins followed by dialysis with pH 7.2 sodium phosphate buffer relative to control; settings: read-out: Activity
[7] = target: T2, Amine oxidase [flavin-containing] B; assay: Reversible inhibition of MAOB (unknown origin) assessed as residual enzyme activity at 0.08 uM using benzylamine as substrate measured after 30 mins relative to control; settings: 0.5 h, read-out: Activity
[8] = target: T1, Amine oxidase [flavin-containing] A; assay: Reversible inhibition of MAOA (unknown origin) assessed as residual enzyme activity at 2 uM using kynuramine as substrate measured after 30 mins relative to control; settings: 0.5 h, read-out: Activity
[9] = target: T1, Amine oxidase [flavin-containing] A; assay: Reversible inhibition of MAOA (unknown origin) assessed as residual enzyme activity at 2 uM using kynuramine as substrate pre-incubated for 30 mins followed by dialysis with pH 7.2 sodium phosphate buffer relative to control; settings: read-out: Activity
[10] = target: T1, Amine oxidase [flavin-containing] A; assay: Irreversible inhibition of MAOA (unknown origin) assessed as residual enzyme activity at 0.014 uM using kynuramine as substrate pre-incubated for 30 mins followed by dialysis with pH 7.2 sodium phosphate buffer relative to control; settings: read-out: Activity
[11] = target: T1, Amine oxidase [flavin-containing] A; assay: Irreversible inhibition of MAOA (unknown origin) assessed as residual enzyme activity at 0.014 uM using kynuramine as substrate measured after 30 mins relative to control; settings: 0.5 h, read-out: Activity
[12] = target: T2, Amine oxidase [flavin-containing] B; settings: 0.5 h
[13] = target: T1, Amine oxidase [flavin-containing] A; assay: Competitive inhibition of MAOA (unknown origin) using varying levels of kynuramine as substrate preincubated for 15 mins followed by substrate addition and measured by Lineweaver-burk plot analysis
[14] = target: T1, Amine oxidase [flavin-containing] A; assay: Reversible inhibition of MAOA (unknown origin) assessed as residual enzyme activity at 3.6 uM using kynuramine as substrate measured after 30 mins relative to control; settings: 0.5 h, read-out: Activity
[15] = target: T1, Amine oxidase [flavin-containing] A; assay: Reversible inhibition of MAOA (unknown origin) assessed as residual enzyme activity at 3.6 uM using kynuramine as substrate pre-incubated for 30 mins followed by dialysis with pH 7.2 sodium phosphate buffer relative to control; settings: read-out: Activity
[16] = target: T2, Amine oxidase [flavin-containing] B; assay: Reversible inhibition of MAOB (unknown origin) assessed as residual enzyme activity at 0.54 uM using benzylamine as substrate pre-incubated for 30 mins followed by dialysis with pH 7.2 sodium phosphate buffer relative to control; settings: read-out: Activity
[17] = target: T2, Amine oxidase [flavin-containing] B; assay: Competitive inhibition of MAOB (unknown origin) using varying levels of benzylamine as substrate preincubated for 15 mins followed by substrate addition and measured by Lineweaver-burk plot analysis
[18] = target: T2, Amine oxidase [flavin-containing] B; assay: Reversible inhibition of MAOB (unknown origin) assessed as residual enzyme activity at 0.54 uM using benzylamine as substrate measured after 30 mins relative to control; settings: 0.5 h, read-out: Activity

Sequence of Acetylcholinesterase (O42275 whole entry): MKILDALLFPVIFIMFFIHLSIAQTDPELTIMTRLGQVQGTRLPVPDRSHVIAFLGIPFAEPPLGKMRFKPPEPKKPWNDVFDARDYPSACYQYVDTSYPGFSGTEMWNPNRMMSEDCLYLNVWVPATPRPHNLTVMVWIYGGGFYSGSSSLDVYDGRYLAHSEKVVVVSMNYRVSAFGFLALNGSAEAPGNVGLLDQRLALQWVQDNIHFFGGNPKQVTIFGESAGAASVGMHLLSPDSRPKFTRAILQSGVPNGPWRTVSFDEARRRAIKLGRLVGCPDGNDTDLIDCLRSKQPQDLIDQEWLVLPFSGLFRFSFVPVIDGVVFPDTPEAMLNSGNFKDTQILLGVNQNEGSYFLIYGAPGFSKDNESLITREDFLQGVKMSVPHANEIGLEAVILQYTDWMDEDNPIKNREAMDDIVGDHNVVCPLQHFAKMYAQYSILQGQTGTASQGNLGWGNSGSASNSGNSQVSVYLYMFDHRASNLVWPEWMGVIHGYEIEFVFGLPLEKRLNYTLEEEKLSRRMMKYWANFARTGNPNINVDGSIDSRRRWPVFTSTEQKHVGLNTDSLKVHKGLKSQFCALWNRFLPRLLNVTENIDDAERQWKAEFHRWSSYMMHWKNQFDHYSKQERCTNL

In the case of `NC(=S)N/N=C/c1ccccc1F`, the IC50 [1] is reported as over 10 µM, the Papp at 16 h, 100 ug/ml [2] is reported as 103 nm/s and the IC50 [3] is reported as 7.61 µM. For the same compound, the activity at 10 µM [4] was 33.5%, the activity at 10 µM [5] was 77.5% and the IC50 (Acetylcholinesterase) was 30.8 µM. For the same compound, the Ratio IC50 (Homo sapiens) was over 1.31.

Compound `NCCNC(=O)c1ccc(Cl)cn1` [LAZABEMIDE] has an activity at 0.08 µM [6] of 86.9%, an IC50 [1] of over 80 µM and an activity at 0.08 µM [7] of 29.5%.

For `N=C(S)N/N=C/c1ccc(C(F)(F)F)cc1`, the IC50 [1] was over 10 µM, the IC50 [3] was over 10 µM and the activity at 10 µM [4] was 77.5%. For the same compound, the activity at 10 µM [5] was 92.5% and the IC50 (Acetylcholinesterase) was 36.2 µM.

In the case of `NC(=S)N/N=C/c1ccc(Br)cc1`, the IC50 [1] is reported as over 10 µM, the IC50 [3] is reported as over 10 µM and the activity at 10 µM [4] is reported as 82.5%. The activity at 10 µM [5] was 59.5% and the IC50 (Acetylcholinesterase) was 31.1 µM.

Work on `NC(=S)N/N=C/c1ccc(F)cc1` yielded an IC50 [1] of over 10 µM, an IC50 [3] of over 10 µM and an activity at 10 µM [4] of 86.5%. For the same compound, the activity at 10 µM [5] was 84.5% and the IC50 (Acetylcholinesterase) was 37.9 µM.

`Cc1cccc(N2CC(CO)OC2=O)c1` (stereo not given) [TOLOXATONE] showed an activity at 2 µM [8] of 30.7% and an activity at 2 µM [9] of 74%.

`NC(=S)N/N=C/c1ccc(O)cc1` showed an IC50 [1] of over 10 µM, an IC50 [3] of over 10 µM and an activity at 10 µM [4] of 87.5%. It also gave an activity at 10 µM [5] of 66% and an IC50 (Acetylcholinesterase) of over 40 µM.

Compound `Cc1ccc(/C=N/NC(N)=S)cc1` has an IC50 [1] of over 10 µM, an IC50 [3] of over 10 µM and an activity at 10 µM [4] of 91.5%. The activity at 10 µM [5] was 56.5% and the IC50 (Acetylcholinesterase) was over 40 µM.

`CCc1ccc(/C=N/NC(N)=S)cc1` showed an IC50 [1] of 5.98 µM, a Papp at 16 h, 100 ug/ml [2] of 94.4 nm/s and an IC50 [3] of over 10 µM. For the same compound, the activity at 10 µM [4] was 86.2%, the activity at 10 µM [5] was 36% and the IC50 (Acetylcholinesterase) was 26.7 µM. For the same compound, the Ratio IC50 (Homo sapiens) was under 0.6.

For `C#CCN(C)CCCOc1ccc(Cl)cc1Cl` [CLORGILINE], the activity at 0.014 µM [10] was 19.8% and the activity at 0.014 µM [11] was 21.4%.

`NC(=S)N/N=C/c1ccc(Cl)cc1` showed an IC50 [1] of over 10 µM, an IC50 [3] of over 10 µM and an activity at 10 µM [4] of 60.5%. It also gave an activity at 10 µM [5] of 76% and an IC50 (Acetylcholinesterase) of over 40 µM.

`C#CCN(C)Cc1ccccc1` [PARGYLINE] showed an activity at 0.2 µM [12] of 27.9%.

With `N/C(S)=N/N=C/c1ccc([N+](=O)[O-])cc1` the IC50 [1] was over 10 µM, the Papp at 16 h, 100 ug/ml [2] was 128 nm/s and the IC50 [3] was 1.43 µM. For the same compound, the activity at 10 µM [4] was 7.5%, the activity at 10 µM [5] was 75.5% and the IC50 (Acetylcholinesterase) was 15.6 µM. For the same compound, the Ratio IC50 (Homo sapiens) was over 6.99.

For `NC(=S)N/N=C/c1ccccc1` [PHENYLTHIOSEMICARBAZONE], the IC50 [1] was over 10 µM, the IC50 [3] was over 10 µM and the activity at 10 µM [4] was 75.5%. It also gave an activity at 10 µM [5] of 83.5% and an IC50 (Acetylcholinesterase) of over 40 µM.

Work on `CN(C)c1ccc(/C=N/NC(N)=S)cc1` yielded a Ki [13] of 0.97 µM, an activity at 3.6 µM [14] of 34.7% and an IC50 [1] of 1.82 µM. The Papp at 16 h, 100 ug/ml [2] was 101 nm/s, the IC50 [3] was over 10 µM and the activity at 10 µM [4] was 82.3%. It also gave an activity at 10 µM [5] of 16.5%, an activity at 3.6 µM [15] of 70.3% and an IC50 (Acetylcholinesterase) of 35.3 µM.

Compound `COc1ccc(/C=N/NC(N)=S)cc1` has an IC50 [1] of 4.99 µM, a Papp at 16 h, 100 ug/ml [2] of 112 nm/s and an IC50 [3] of over 10 µM. It also gave an activity at 10 µM [4] of 82.1%, an activity at 10 µM [5] of 37.5% and an IC50 (Acetylcholinesterase) of 36.1 µM. It also gave a Ratio IC50 (Homo sapiens) of under 0.5.

Compound `NC(=S)N/N=C/c1cccc(F)c1` has an IC50 [1] of over 10 µM, a Papp at 16 h, 100 ug/ml [2] of 131 nm/s and an IC50 [3] of 0.27 µM. For the same compound, the activity at 0.54 µM [16] was 81%, the activity at 10 µM [4] was 3% and the activity at 10 µM [5] was 75.5%. It also gave a Ki [17] of 0.12 µM, an IC50 (Acetylcholinesterase) of 26.6 µM and an activity at 0.54 µM [18] of 27.4%. It also gave a Ratio IC50 (Homo sapiens) of over 37.
